For 13 compounds, FICI and MIC results are on record in paper PMC6017631, “The Effect of Combining Natural Terpenes and Antituberculous Agents against Reference and Clinical Mycobacterium tuberculosis Strains” (Molecules : A Journal of Synthetic Chemistry and Natural …, 2018).

Values after ≈ are worked out from the molar mass of the structure shown. Read-outs that look alike come from different tables or passages of the source.

The test system of one experiment is M. tuberculosis H37Rv. Conditions: H37Rv and some Mtb drug-resistant clinical isolates ref 2, 60, 61, cited from earlier work.
Experiment [1] has as its system clinical isolate 12331 (IRE resistant). The experiment in a line: microbe, parasite or virus in culture. The class given is cell-based, Mycobacterium tuberculosis.
In experiment [2] the test system is clinical isolate 85/13 (Beijing, SIRE resistant). The experiment in a line: microbe, parasite or virus in culture. The class given is cell-based, Mycobacterium tuberculosis.
For experiment [3], the system named is clinical isolate 126 (INH resistant). Kind of experiment: microbe, parasite or virus in culture. The format is cell-based, Mycobacterium tuberculosis.
Setting [4] is: compounds tested separately, 12331.
Setting [5] is: compounds tested separately, 85/13.
The mark [6] stands for this setting: compounds tested separately, 126.
[7] abbreviates: Mycobacterium tuberculosis, read-out: MIC for EMB in a Presence of Terpenes.
[8] abbreviates: Mycobacterium tuberculosis, read-out: MIC for INH in a Presence of Terpenes.
[9] abbreviates: Mycobacterium tuberculosis, read-out: MIC for RMP in a Presence of Terpenes.

For the compound `Cc1cc(O)c2c(c1)C(=O)C=CC2=O` [7-methyljuglone], the FICI in the experiment on M. tuberculosis H37Rv (in combination with isoniazid) is on record as 0.2; with M. tuberculosis H37Rv (with rifampicin), 0.5.

For the compound `C=C(C)[C@H]1CC=C(C)CC1` [(R)-limonene], the MIC in experiment [1] (setting [4]) turned out to be 128 µg/mL (≈ 940 µM); in experiment [2] (setting [5]) it was 256 µg/mL (≈ 1880 µM); in experiment [3] (setting [6]), 128 µg/mL (≈ 940 µM).

With `CC[C@@H](CO)NCCN[C@@H](CC)CO` [EMB, ethambutol, reference compound], the MIC in experiment [1] (Mycobacterium tuberculosis) worked out at 16 µg/mL (≈ 78.3 µM); in experiment [2] (Mycobacterium tuberculosis), 16 µg/mL (≈ 78.3 µM); in experiment [3] (Mycobacterium tuberculosis) it was 0.25 µg/mL (≈ 1.22 µM).

Take `NNC(=O)c1ccncc1` [INH, isoniazid, reference compound]: the MIC in experiment [1] (Mycobacterium tuberculosis) was 16 µg/mL (≈ 117 µM); in experiment [2] (Mycobacterium tuberculosis), 16 µg/mL (≈ 117 µM); in experiment [3] (Mycobacterium tuberculosis) it was 0.5 µg/mL (≈ 3.65 µM).

Regarding `CO[C@H]1/C=C/O[C@@]2(C)Oc3c(C)c(O)c4c(O)c(c(/C=N/N5CCN(C)CC5)c(O)c4c3C2=O)NC(=O)/C(C)=C\C=C\[C@H](C)[C@H](O)[C@@H](C)[C@@H](O)[C@@H](C)[C@H](OC(C)=O)[C@@H]1C` [RMP, rifampicin, reference compound], the MIC is 256 µg/mL (≈ 311 µM) in experiment [1] (Mycobacterium tuberculosis), 128 µg/mL (≈ 156 µM) in experiment [2] (Mycobacterium tuberculosis) and 0.25 µg/mL (≈ 0.304 µM) in experiment [3] (Mycobacterium tuberculosis).

Consider `CC(C)=CCC[C@](C)(O)C1CC=C(C)CC1` (stereo partly shown) [bisabolol], for which the results for the MIC in experiment [1] (setting [4]), in experiment [2] (setting [5]) and in experiment [3] (setting [6]) were 256 µg/mL (≈ 1150 µM), 128 µg/mL (≈ 576 µM) and 32 µg/mL (≈ 144 µM), respectively.

For `C=CC(=C)CCC=C(C)C` [myrcene], the MIC is 512 µg/mL (≈ 3760 µM) in experiment [1] (Mycobacterium tuberculosis); 16 µg/mL in experiment [1] (setting [7]); 16 µg/mL in experiment [1] (setting [8]); 256 µg/mL in experiment [1] (setting [9]); above 512 µg/mL in experiment [2] (Mycobacterium tuberculosis); 16 µg/mL in experiment [2] (setting [7]). Moreover, the MIC was 16 µg/mL in experiment [2] (setting [8]); 128 µg/mL in experiment [2] (setting [9]); 256 µg/mL (≈ 1880 µM) in experiment [3] (Mycobacterium tuberculosis); 0.25 µg/mL in experiment [3] (setting [7]); 0.5 µg/mL in experiment [3] (setting [8]); 0.25 µg/mL in experiment [3] (setting [9]).

For `CCCCCCCC/C=C\CCCCCCCC(=O)O` [oleic acid], the FICI in the experiment on M. tuberculosis H37Rv (in combination with isoniazid, rifampicin and ethambutol) was 0.09–0.36.

On to `C=C1CCC2(C(C)C)CC12` (stereo not shown) [sabinene], for which the MIC in experiment [1] (Mycobacterium tuberculosis) is above 512 µg/mL; in experiment [1] (setting [7]), 16 µg/mL; in experiment [1] (setting [8]), 16 µg/mL; in experiment [1] (setting [9]) it was 256 µg/mL; in experiment [2] (Mycobacterium tuberculosis), 512 µg/mL (≈ 3760 µM); in experiment [2] (setting [7]), 16 µg/mL. For the same compound, the MIC in experiment [2] (setting [8]) is 16 µg/mL; in experiment [2] (setting [9]), 128 µg/mL; in experiment [3] (Mycobacterium tuberculosis), 128 µg/mL (≈ 940 µM); in experiment [3] (setting [7]) it was 0.25 µg/mL; in experiment [3] (setting [8]) it was 0.5 µg/mL; in experiment [3] (setting [9]) it was 0.25 µg/mL.

For `CC(=O)c1c(O)c(C)c(O)c2c1OC1=CC(=O)C(C(C)=O)C(=O)C12C` (stereo not shown) [usnic acid], the FICI with M. tuberculosis H37Rv (with rifampicin) is 0.25–0.38.

For the compound `CC1=CCC2CC1C2(C)C` (stereo not drawn) [α-pinene], the MIC in experiment [1] (Mycobacterium tuberculosis) was above 512 µg/mL; in experiment [1] (setting [7]), 16 µg/mL; in experiment [1] (setting [8]), 16 µg/mL; in experiment [1] (setting [9]) it was 256 µg/mL; in experiment [2] (Mycobacterium tuberculosis) it was 512 µg/mL (≈ 3760 µM); in experiment [2] (setting [7]) it was 16 µg/mL. In addition, the MIC in experiment [2] (setting [8]) is 16 µg/mL; in experiment [2] (setting [9]) it was 128 µg/mL; in experiment [3] (Mycobacterium tuberculosis) it was 128 µg/mL (≈ 940 µM); in experiment [3] (setting [7]), 0.25 µg/mL; in experiment [3] (setting [8]), 0.5 µg/mL; in experiment [3] (setting [9]), 0.25 µg/mL.

For the compound `C=C[C@]1(C)CC[C@@H](C(=C)C)C[C@H]1C(=C)C` [β-elemene], the results for the MIC in experiment [1] (setting [4]), in experiment [2] (setting [5]) and in experiment [3] (setting [6]) were 256 µg/mL (≈ 1250 µM), above 512 µg/mL and 256 µg/mL (≈ 1250 µM), respectively.

In the case of (S)-limonene, the values for the MIC in experiment [1] (setting [4]), in experiment [2] (setting [5]) and in experiment [3] (setting [6]) were 512 µg/mL, above 512 µg/mL and 256 µg/mL, respectively.
